Laboratory results from patent publication US9701709B2 (REATA PHARMACEUTICALS, INC., priority 2012, dated 2017).

Columns and labels:
[1] = test system: Nrf2 target genes (NQO1, HMOX1, GCLM, TXNRD1) in HFL1 lung fibroblasts; test: Nrf2 target gene mRNA (qPCR) in HFL1; assay type: cell-based, human; conditions: HFL1, 18 h
Procedure: HFL1 cells were cultured in F-12K media supplemented with 10% fetal bovine serum and 1% penicillin-streptomycin. BEAS-2B cells were cultured in DMEM/F-12 media supplemented with 10% fetal bovine serum and 1% penicillin-streptomycin. […] Each well received the same amount of vehicle. Following treatment, media was removed and cells were harvested using RLT buffer (Qiagen). Lysates were homogenized using QIAShredder columns (Qiagen, Catalog #79654) and RNA was isolated using RNeasy Mini kits (Qiagen, Catalog #74104). For reverse transcription, RNA (1 μg) was combined with Oligo(dT)12-18 primer and H2O in a final volume of 23.25 μL. The mixture was heated to 70° C. for 10 min and then placed on ice. A master mix containing 8 μL 5×1st strand buffer, 2 μL 1 mg/ml BSA, 2 μL 20 mM DTT, 4 μL 5 mM dNTP mix, 0.25 μL RNaseOUTTM and 0.5 μL […]® II reverse transcriptase was added to the RNA mixture and incubated at 42° C. for 1 h. The reaction was inactivated by heating to 70° C. for 10 min. The reaction mixture was diluted 1:3 with H2O prior to use in qPCR. […] The relative abundance of each Nrf2 target gene was determined using the comparative CT method (ΔΔCT). […]

[2] = Oral pharmacokinetics, statements pooled over mice, rats, and monkeys; assay type: in vivo; conditions: mouse, rat, monkey, plasma; after oral administration; read-out: Apparent terminal half-life
Procedure: (§1) Measurements were performed on TQD and QToF mass spectrometers (Waters).
(§2) Following oral administration of a suspension formulation at doses of 10 to 100 mg/kg, maximal concentrations were observed within 1 to 2 h in mice, and within 1 to 24 h in rats and monkeys.

[3] = test system: fractionated radiation dermatitis; test: Fractionated radiation dermatitis in Balb/c mice; assay type: in vivo, mouse; conditions: for % Days ≧ 2 (dermatitis score) / % Days ≧ 3 (dermatitis score): 6 × 10 Gy
Procedure: The mice were irradiated on days 0-2 and 5-7 with six 10-Gy doses […]. Clinical dermatitis scores for the mice were evaluated blindly every two days from day 4 until the end of the study. […] Study and treatment parameters can be found in Table 6.
By analyzing the average clinical scores that were shown in FIG. 46, an area under the curve (AUC) analysis was performed, which yielded the severity of the dermatitis relative to how long the dermatitis persisted.

[4] = test system: ovalbumin-induced asthma; test: Ovalbumin-induced asthma in mice; assay type: in vivo, mouse
Source text: Mice were sensitized with an IP injection of ovalbumin and aluminum hydroxide on Day 0 and Day 14 and challenged intranasally with ovalbumin in saline on Days 14, 25, 26, and 27. […] An increase in the number of T cells and B cells was also observed in the vehicle-treated mice.

[5] = test system: radiation-induced oral mucositis; test: Radiation-induced oral mucositis in hamsters
[6] = Oral pharmacokinetics in mice; assay type: in vivo, mouse; conditions: oral suspension, 10 to 100 mg/kg
Procedure: as §1, §2

[7] = test system: micronucleated polychromatic erythrocytes; test: In vivo micronucleus study

SMILES: CC1(C)CC[C@]2(NC(=O)C(C)(F)F)CC[C@]3(C)[C@H](C(=O)C=C4[C@@]5(C)C=C(C#N)C(=O)C(C)(C)[C@@H]5CC[C@]43C)[C@@H]2C1 [RTA 408, N-((4aS,6aR,6bS,8aR,12aS,14aR,14bS)-11-cyano-2,2,6a,6b,9,9,12a-heptamethyl-10,14-dioxo-1,2,3,4,4a,5,6,6a,6b,7,8,8a,9,10,12a,14,14a,14b-octadecahydropicen-4a-yl)-2,2-difluoropropanamide]
- Lowest concentration at which induction of Nrf2 target genes was evident [1]: 15.6 nM
- half-life [2]: 6 to 26 h
- Average clinical dermatitis score ([3]; 0.1% to 1% topical formulations): statistically significant improvement in the scores
- % Days ≧ 2 (dermatitis score) ([3]; topical 0.01%): 54%
- % Days ≧ 3 (dermatitis score) ([3]; topical 0.01%): 29%
- % Days ≧ 2 (dermatitis score) ([3]; topical 0.1%): 40%
- % Days ≧ 3 (dermatitis score) ([3]; topical 0.1%): 13%
- % Days ≧ 3 (dermatitis score) ([3]; topical 1%, vehicle 33%): 6%
- % Days ≧ 2 (dermatitis score) ([3]; topical 1%, vehicle 60%): 21%
- B cells within the airways ([4]; 30 mg/kg): significantly reduced the number and percentage of B cells within the airways
- Macrophages detected in the airways ([4]; 3 and 30 mg/kg): significantly reduced the number of macrophages
- Reduction in ulceration ([5]; 30 mg/kg and 100 mg/kg BID×20): ≤ 36%
- Euthanasia due to weight loss in excess of 20% ([5]; 100 mg/kg): two out of eight hamsters in the 100 mg/kg dose group were euthanized on Day 2
- Duration of ulcerative mucositis ([5]; 30 and 100 mg/kg twice daily): significant reduction in the duration of ulcerative mucositis
- Time of maximal concentrations [6]: 1 to 2 h
- Change from Control (%) ([7]; 125 mg/kg, 24-h timepoint): −8%
- Number of MPCE/1000 PCE (Mean +/− SD) ([7]; 125 mg/kg, 24-h timepoint): 0.3 ± 0.27
- Number of MPCE/PCE Scored ([7]; 125 mg/kg, 24-h timepoint): 3/10000
- PCE/Total Erythrocytes (Mean +/− SD) ([7]; 125 mg/kg, 24-h timepoint): 0.543 ± 0.03
- Change from Control (%) ([7]; 125 mg/kg, 48-h timepoint): −14%
- Number of MPCE/1000 PCE (Mean +/− SD) ([7]; 125 mg/kg, 48-h timepoint): 0.2 ± 0.27
- Number of MPCE/PCE Scored ([7]; 125 mg/kg, 48-h timepoint): 2/10000
- PCE/Total Erythrocytes (Mean +/− SD) ([7]; 125 mg/kg, 48-h timepoint): 0.453 ± 0.03
- Change from Control (%) ([7]; 250 mg/kg, 24-h timepoint): −12%
- Number of MPCE/1000 PCE (Mean +/− SD) ([7]; 250 mg/kg, 24-h timepoint): 0.3 ± 0.27
- Number of MPCE/PCE Scored ([7]; 250 mg/kg, 24-h timepoint): 3/10000
- PCE/Total Erythrocytes (Mean +/− SD) ([7]; 250 mg/kg, 24-h timepoint): 0.520 ± 0.06
- Change from Control (%) ([7]; 250 mg/kg, 48-h timepoint): −26%
- Number of MPCE/1000 PCE (Mean +/− SD) ([7]; 250 mg/kg, 48-h timepoint): 0.2 ± 0.27
- Number of MPCE/PCE Scored ([7]; 250 mg/kg, 48-h timepoint): 2/10000
- PCE/Total Erythrocytes (Mean +/− SD) ([7]; 250 mg/kg, 48-h timepoint): 0.391 ± 0.02
- Change from Control (%) ([7]; 500 mg/kg, 24-h timepoint): −28%
- Number of MPCE/1000 PCE (Mean +/− SD) ([7]; 500 mg/kg, 24-h timepoint): 0.0 ± 0.00
- Number of MPCE/PCE Scored ([7]; 500 mg/kg, 24-h timepoint): 0/10000
- PCE/Total Erythrocytes (Mean +/− SD) ([7]; 500 mg/kg, 24-h timepoint): 0.426 ± 0.07
- Change from Control (%) ([7]; 500 mg/kg, 48-h timepoint): −36%
- Number of MPCE/1000 PCE (Mean +/− SD) ([7]; 500 mg/kg, 48-h timepoint): 0.3 ± 0.45
- Number of MPCE/PCE Scored ([7]; 500 mg/kg, 48-h timepoint): 3/10000
- PCE/Total Erythrocytes (Mean +/− SD) ([7]; 500 mg/kg, 48-h timepoint): 0.339 ± 0.05
- Change from Control (%) ([7]; 1000 mg/kg, 24-h timepoint): −15%
- Number of MPCE/1000 PCE (Mean +/− SD) ([7]; 1000 mg/kg, 24-h timepoint): 0.2 ± 0.27
- Number of MPCE/PCE Scored ([7]; 1000 mg/kg, 24-h timepoint): 2/10000
- PCE/Total Erythrocytes (Mean +/− SD) ([7]; 1000 mg/kg, 24-h timepoint): 0.498 ± 0.05
- Change from Control (%) ([7]; 1000 mg/kg, 48-h timepoint): −35%
- Number of MPCE/1000 PCE (Mean +/− SD) ([7]; 1000 mg/kg, 48-h timepoint): 0.1 ± 0.22
- Number of MPCE/PCE Scored ([7]; 1000 mg/kg, 48-h timepoint): 1/10000
- PCE/Total Erythrocytes (Mean +/− SD) ([7]; 1000 mg/kg, 48-h timepoint): 0.344 ± 0.04
- Change from Control (%) ([7]; 1500 mg/kg, 24-h timepoint): −15%
- Number of MPCE/1000 PCE (Mean +/− SD) ([7]; 1500 mg/kg, 24-h timepoint): 0.4 ± 0.22
- Number of MPCE/PCE Scored ([7]; 1500 mg/kg, 24-h timepoint): 4/10000
- PCE/Total Erythrocytes (Mean +/− SD) ([7]; 1500 mg/kg, 24-h timepoint): 0.499 ± 0.06
- Change from Control (%) ([7]; 1500 mg/kg, 48-h timepoint): −39%
- Number of MPCE/1000 PCE (Mean +/− SD) ([7]; 1500 mg/kg, 48-h timepoint): 0.4 ± 0.42
- Number of MPCE/PCE Scored ([7]; 1500 mg/kg, 48-h timepoint): 4/10000
- PCE/Total Erythrocytes (Mean +/− SD) ([7]; 1500 mg/kg, 48-h timepoint): 0.376 ± 0.05
- Change from Control (%) ([7]; 2000 mg/kg, 24-h timepoint): −10%
- Number of MPCE/1000 PCE (Mean +/− SD) ([7]; 2000 mg/kg, 24-h timepoint): 0.2 ± 0.27
- Number of MPCE/PCE Scored ([7]; 2000 mg/kg, 24-h timepoint): 2/10000
- PCE/Total Erythrocytes (Mean +/− SD) ([7]; 2000 mg/kg, 24-h timepoint): 0.531 ± 0.05
- Change from Control (%) ([7]; 2000 mg/kg, 48-h timepoint): −32%
- Number of MPCE/1000 PCE (Mean +/− SD) ([7]; 2000 mg/kg, 48-h timepoint): 0.1 ± 0.22
- Number of MPCE/PCE Scored ([7]; 2000 mg/kg, 48-h timepoint): 1/10000
- PCE/Total Erythrocytes (Mean +/− SD) ([7]; 2000 mg/kg, 48-h timepoint): 0.360 ± 0.03
- Genotoxicity in the In Vivo Micronucleus Study ([7]; 125-2000 mg/kg, 24-h and 48-h timepoints): 63415 is Negative for Genotoxicity in the In Vivo Micronucleus Study
